Test results taken from US11111222B2, “Hydroxyeicosatrienoic acid compounds and their use as therapeutic agents” (THE REGENTS OF THE UNIVERSITY OF MICHIGAN, priority 2016, dated 2021).
Blank lines part the entries; values can stand above or below the molecule they belong to.

How the values were obtained:
[1] = test system: washed platelets from WT or 12-LOX−/− mice; assay: Platelet aggregation, washed murine platelets (lumi-aggregometer); format: cell-based, mouse; details: 10 min
Experimental: The 12-LOX null C57BL/6 (12-LOX^−/−) mice were generated using homozygous breeding pairs and wild-type (WT) C57BL/6 ([…]) mice were purchased (Jackson Laboratory). […] Mouse blood was diluted with equal volumes of Tyrode's buffer (10 mM HEPES, 11.9 mM sodium bicarbonate, 127.2 mM sodium chloride, 5 mM potassium chloride, 0.4 mM sodium phosphate monobasic, 1 mM magnesium chloride, and 5 mM D-glucose) and centrifuged at 200×g. Platelet-rich-plasma (PRP) was transferred to a tube containing 10× acid citrate dextrose solution (ACD) (2.5% sodium citrate, 1.5% citric acid, and 2% D-glucose) and apyrase (0.02 U/mL), and centrifuged at 2000×g. Platelet count was adjusted to 3×10^8 platelets/mL with Tyrode's buffer for all studies.
A lumi-aggregometer (Chrono-log model 700D) was used to measure platelet aggregation under stirring conditions (1100 rpm) at 37° C. Prior to agonist stimulation platelets were incubated with a preselected PUFA or oxylipin for 10 minutes.

Tail bleeding assay = format: in vivo, mouse; details: heparin-treated mice; data not shown
Experimental: Mice were anesthetized with ketamine/xyzaline and placed on a heating pad in prone position, the tip of the tail (5 mm) was excised with a sterile scalpel, and the tails were immediately immersed into isotonic saline solution (0.9%) warmed to 37° C. Bleeding time was assessed until cessation of blood flow from the tail for 1 minute.

VASP (serine 157) = assay: VASP phosphorylation in human platelets; format: cell-based; details: 1 min
Experimental: Washed platelets were treated with PUFA or PUFA metabolite (12(S)-HETrE or compound IIc) for one minute, then directly lysed in 5× Laemmeli sample buffer (1.5 M Tris-HCl, pH 6.8, glycerol, 5% β-mercaptoethanol, 10% sodium dodecyl sulfate (SDS), and 1% bromophenol blue). The samples were boiled for five minutes and then run on a 10% SDS-PAGE gel. The levels of total and phospho-VASP (serine 157) were quantified by Western Blot using an Odyssey imaging system (LI-CoR).

Gαs = assay: [35S]GTPγS binding to immunoprecipitated Gαs, platelet membranes; format: biochemical; details: human platelet membranes, vs DMSO
Experimental: PRP was isolated from whole blood as described above and then incubated with 1 mM aspirin for 1 hour at 37° C. Platelets were pelleted at 2000 g for 10 min in the presence of 10×ACD and apyrase. The pelleted platelets were washed with Tyrode's and centrifuged at 2000×g with 10×ACD for 10 min at room temperature. The platelets were flash frozen with liquid nitrogen and then resuspended in cold detergent-free TME buffer (50 mM Tris-HCl, pH 7.5, 20 mM MgCl2, 2 mM EDTA, and 100 mM NaCl) with 1 μM GDP and protease and phosphatase inhibitors to lyse the platelets. The lysed platelets were centrifuged at 1500 g at 4° C. for 5 min. The supernatant was collected and centrifuged at 100,000×g for 30 min at 4° C. The pelleted membranes were resuspended in TME buffer with 1 μM GDP and stored at −80° C. prior to use. Fatty acid metabolites, agonists, or DMSO and [^35S]GTPγS (10 nM) were added to platelet membranes (60 μg/reaction) on ice, and the tubes were immediately transferred to a 30° C. water bath shaker for 20 min. The reaction was terminated by the addition of ice-cold IP buffer (50 mM Tris-HCl, pH 7.5, 20 mM MgCl2, 150 mM NaCl, 0.5% Nonidet P-40, 0.33% aprotinin, 0.1 mM GDP, and 0.1 mM GTP). The samples were pre-cleared with Protein A agarose beads and normal rabbit IgG for 30 min on a nutator at 4° C. and then aliquoted equally into two tubes containing either normal rabbit IgG or a Gs antibody that had been conjugated to Protein A agarose beads. The samples were incubated on a nutator for 1 hr at 4° C. and washed 4 times with IP buffer and 1 time in TME buffer. The samples were boiled in 0.5% SDS for 30 sec, and the supernatants were collected following brief centrifugation. The supernatants were analyzed in 8 mL of scintillation fluid. The background counts for the normal rabbit IgG (50-200 cpm) for each sample were subtracted from the anti-Gs immunoprecipitated samples prior to analyzing the data.

adenylyl cyclase = assay: LC/MS quantification of cAMP in washed human platelets; format: cell-based; details: 25 μM, 1 min; platelets pre-treated with 10 μM IBMX; vs DMSO
Experimental: Washed human platelets were treated with the specific ligand or vehicle control for 1 min at room temperature, and quenched with an equal volume of ice-cold 2× platelet lysis buffer containing protease and phosphatase inhibitors. Lysed platelet samples were centrifuged at 14,000 g for 7 min at 4° C. to pellet cytoskeleton and the supernatant was stored in −80° C.
To prepare the sample for LC/MS injection, 200 μL of the supernatant was spiked with 400 pg of adenosine-3′,5′-cyclic-13C5 monophosphate (^13C5-cAMP) (Toronto Research Chemicals, Inc.), an internal standard, and 600 μL of LC/MS grade acetonitrile (Fisher Scientific). The sample was briefly vortexed and centrifuged at 14,000 rpm for 10 min at 4° C. The supernatants were then air dried in a SpeedVac and reconstituted in 200 μL of LC/MS grade water and centrifuged at 10,000 rpm for 5 min at 4° C. and used for LC/MS injection.
The separation and detection of cAMP was performed on a Waters ACQUITY UPLC system equipped with a Xevo Triple Quadrupole Mass Spectrometer (TQ-S MS/MS). […]
The mass spectrometer was operated with an ESI source in positive mode. […] Cyclic AMP (cAMP) was quantitated using ^13C5-cAMP as the internal standard. […]

washed human platelets = assay: Human platelet aggregation after pre-treatment with adenylyl cyclase inhibitor SQ 22536; format: cell-based; details: platelets pre-treated with SQ 22536 (25 μM, 20 min); iloprost 0.2 to 0.4 nM, 1 min; EC80 PAR4-AP
Experimental: Blood from healthy donors was collected into vacutainers containing buffered sodium citrate, and platelets were isolated by serial centrifugation as described above for mouse platelets. The platelets were resuspended in Tyrode's buffer at 3×10^8 platelets/mL, unless otherwise specified.
A lumi-aggregometer (Chrono-log model 700D) was used to measure platelet aggregation under stirring conditions (1100 rpm) at 37° C. […]

platelets = details: cited from earlier work
Rap1 = Rap1 activation in washed platelets (Rap1-GTP pull-down, Western blot); format: cell-based, mouse; details: 10 μM DGLA, PAR4-AP 50, 100, 200 μM
Experimental: Following 1 minute of stimulation platelets were lysed with 2× platelet lysis buffer (100 mM Tris HCl, pH 7.4, 150 mM NaCl, 2% IGEPAL, 1% sodium deoxycholate, and 0.05% SDS) containing protease and phosphatase inhibitors. The cytoskeleton was pelleted by centrifugation at 14000×g for 7 minutes at 4° C. Active Rap1 was selectively captured from the supernatant by incubating GST-tagged Rap1 binding domain of RalGDS conjugated to glutathione sepharose beads for one hour on a nutator at 4° C. The beads were then washed 5 times with IP buffer and resuspended in 2× Laemmeli reducing buffer (62.5 mM Tris-HCl, pH 6.8, 2% SDS, 25% glycerol, 0.01% bromophenol blue, 5% β-mercaptoethanol). The samples were boiled for 10 minutes and then loaded onto a 10% SDS-polyacrylamide gel electrophoresis (PAGE) gel. Western blots were performed using a Rap1 antibody and quantified with a LI-COR imager.

[2] = test system: thrombus formation (platelet and fibrin) in cremaster arterioles; assay: Laser-induced cremaster arteriole thrombosis model; format: in vivo, mouse; details: vs vehicle
Experimental: Wild type (WT) or 12-LOX^−/− mice (12 weeks of age) were anesthetized by intraperitoneal injection of ketamine/xylazine (100 mg/kg) prior to the exposure of the cremaster muscle arterioles under a dissecting microscope with constant perfusion of preheated bicarbonate-buffered saline (Reheman et al., J Thromb Haemost 3:875-883, 2005; Reheman et al., Blood 113:1809-1817, 2009; Wang et al., J Clin Invest 124:4281-4293, 2014). Anti-platelet (DyLight 488 anti-GPIb, 1 μg/g) and anti-fibrin (Alexa Fluor 647, 0.3 μg/g) antibodies were administered via jugular vein catheter prior to intravital microscopy. DGLA (50 mg/kg) or DMSO (vehicle control) were dissolved in a formulation of 5% DMSO and 45% PEG300 in sterile 1×PBS and then intravenously injected into mice 10 minutes prior to induction of thrombosis. 12(S)-HETrE (6 mg/kg) or equal volume of DMSO (vehicle control) was also intravenously injected into mice 10 minutes prior to induction of thrombosis. Multiple independent thrombi were induced in the arterioles (30-50 μm diameter) in each mouse by a laser ablation system (Ablate! photoablation system; Intelligent Imaging Innovations, Denver, Colo., USA). Images of thrombus formation were acquired in real-time under 63× water-immersion objective with a Zeiss Axio Examiner Z1 fluorescent microscope equipped with solid laser launch system (LaserStack; Intelligent Imaging Innovations) and high-speed sCMOS camera. All captured images were analyzed on Slidebook (Intelligent Imaging Innovations Inc., Denver, Colo., USA).

[3] = 12-LOX−/− mouse platelets, 25 μM 12-LOX oxylipin, EC80 PAR4-AP (200 μM) or collagen (2 or 5 μg/mL), vs vehicle
[4] = WT mouse platelets, 25 μM 12-LOX oxylipin, EC80 PAR4-AP (100 μM) or collagen (5 μg/mL), vs vehicle
[5] = 12-LOX−/− mouse platelets, 10 μM PUFA, EC80 PAR4-AP (200 μM) or collagen (2 or 5 μg/mL), vs vehicle
[6] = WT mouse platelets, 10 μM PUFA, EC80 PAR4-AP (100 μM) or collagen (5 μg/mL), vs DMSO
[7] = WT mice, 50 mg/kg i.v. 10 min before laser injury

Molecule: CCCCC/C=C\CC(O)/C=C/C=C\C/C=C\CCCC(=O)O (centres unmarked) [Compound 12-HETE, 12-hydroxy-5Z,8Z,10E,14Z-eicosatetraenoic]
- platelet aggregation [1, 3]: no decrease in collagen- or PAR4-AP-mediated platelet aggregation
- platelet aggregation [1, 4]: no decrease in collagen- or PAR4-AP-mediated platelet aggregation

- bleeding time (Tail bleeding assay): severe bleeding diathesis
Molecule: heparin

Molecule: CCCCC/C=C\C/C=C\CCCCCCCC(=O)O [LA, linoleic acid]
- platelet aggregation [1, 5]: no inhibitory effect
- platelet aggregation [1, 6]: no inhibitory effect

Molecule: CC/C=C\C/C=C\CC(O)/C=C/C=C\C/C=C\CCCC(=O)O (centres unmarked) [Compound 12-HEPE, 12-hydroxy-5Z, 8Z, 10E, 14Z, 17Z-eicosapentaenoic acid]
- platelet aggregation [1, 3]: did not inhibit collagen- or PAR4-AP-induced aggregation
- platelet aggregation [1, 4]: did not inhibit collagen- or PAR4-AP-induced aggregation

Molecule: CCCCC/C=C\C/C=C\C/C=C\C/C=C\CCCC(=O)O [AA]
- platelet aggregation [1, 5]: no inhibitory effect
- platelet aggregation [1, 6]: no inhibitory effect

Molecule: CCCCC/C=C\CC(/C=C/C=C\CCCCCCC(=O)O)OO (centres unmarked) [Compound 12-HpETrE]
- VASP phosphorylation (S157) (VASP (serine 157); 25 μM, vs DMSO): enhanced VASP phosphorylation
- [35S]GTPγS binding to immunoprecipitated Gαs (Gαs; 25 μM): significant increase in [^35S]GTPγS binding
- level of intracellular cAMP (adenylyl cyclase): significant increase in the level of intracellular cAMP

Molecule: CCCCC/C=C\C/C=C\C/C=C\CCCCCSc1n[nH]c(=O)[nH]1 [Compound IIc, 5-(((6Z,9Z,12Z)-octadeca-6,9,12-trien-1-yl)thio)-2,4-dihydro-3H-1,2,4-triazol-3-one]
- VASP phosphorylation (S157) (VASP (serine 157); compound IIc, concentrations not given): dose-dependent phosphorylation of VASP

Molecule: CC#CCC(C)[C@H](O)/C=C/[C@@H]1[C@H]2C/C(=C/CCCC(=O)O)C[C@H]2C[C@H]1O (some centres unmarked) [iloprost]
- [35S]GTPγS binding to immunoprecipitated Gαs (Gαs; iloprost 10 μM): significant increase in [^35S]GTPγS binding
- PAR4-AP-mediated platelet aggregation (washed human platelets): unable to inhibit PAR4-AP-mediated platelet aggregation

Molecule: CCCCC/C=C\C/C=C\C/C=C\CCCCCCC(=O)O [DGLA, Dihomo-γ-linolenic acid]
- platelet aggregation ex vivo (platelets; literature (Farrow and Willis 1975; Kernoff 1977; Willis 1974)): inhibit platelet aggregation ex vivo
- ex vivo aggregation of platelets after dosing (platelets; platelets from humans, baboons, rabbits and rats that received daily oral doses): significant reduction in ex vivo aggregation
- Rap1 activation (Rap1-GTP) (Rap1; 12-LOX−/− mouse platelets): unable to inhibit Rap1 activation
- Rap1 activation (Rap1-GTP) (Rap1; WT mouse platelets): inhibited Rap1 activation at all concentrations of PAR4-AP tested
- VASP phosphorylation (S157) (VASP (serine 157); DGLA 10 μM, vs DMSO): enhanced VASP phosphorylation
- platelet aggregation [1, 5]: failed to inhibit platelet aggregation
- platelet aggregation [1, 6]: significant inhibition of aggregation
- fibrin accumulation in thrombi ([2]; 12-LOX−/− mice, 50 mg/kg i.v.): did not differ
- platelet accumulation in thrombi ([2]; 12-LOX−/− mice, 50 mg/kg i.v.): did not differ
- fibrin accumulation at the site of injury [2, 7]: but not fibrin accumulation
- platelet accumulation at the site of injury [2, 7]: significant reduction in platelet
